# Test results published in patent publication US20210276967A1 (OSPEDALE SAN RAFFAELE S.R.L., priority 2018, published 2021).
# Test system: HBV
# Assay: HBV inhibition in HepAD38 cells, extracellular HBV DNA by direct qPCR
# Type: cell-based, hepatitis B virus
# Details: Hepatitis B virus; 0.1 μM, HepAD38, 96 hours; read-out: HBV inhibition % (conc μM)
# From the text: HepAD38 cell line (Ladner et al., Antimicrob Agents Chemother, 1997, 41, 1715-20) was used for HBV inhibition assays. HepAD38 is a subclone, derived from hepatoblastoma cell line HepG2 (ATCC® Number: HB-8065™), that expresses HBV genome under the transcriptional control of a tetracycline-responsive promoter in a TET-OFF system: addition of tetracycline (TET) or doxycycline suppresses HBV replication, while its removal switches on the process allowing HBV viral particles release in the cell supernatant. HepAD38 cell line is maintained in DMEM/F12, supplemented with 10% of fetal bovine serum, 1% of glutamine, 1% of penicillin/streptomycin, 0.4 mg/ml G418 and 0.3 ug/ml tetracycline. For the HBV inhibition assay, doxycycline-free medium is used in order to allow virion production.
# HBV inhibition activity in vitro was performed in 96 multiwell plates. During the initial (primary) screening compounds were first tested in triplicates at concentrations of 0.1 μM, 0.5 μM and 1 μM. For selected compounds, an 8-point dose-response curve was obtained using 1:2 serial dilutions (starting from 2.5 μM, 1.25 μM or 0.4 μM, depending on the degree of inhibition observed during the primary screening). From the dose-response curves, half maximal effective concentration (EC50) could be calculated (see also below).
# In more detail, compounds—typically dissolved in DMSO stock solutions—were diluted to 2× the final desired concentration in 100 μl of the above medium (without doxycycline) and plated in three replicates in the 96-well plates.
# Simultaneously, HepAD38 cells—extensively pre-washed in tetracycline-free medium in order to induce HBV production—were suspended at 2*10^4 cells in 100 μl of tetracycline-free medium and added to each well of the plate, to yield a final assay volume of 200 μl.
# DMSO, used for stock solutions and compounds dilutions, is always present in the assays at a final concentration of 0.5%.
# Plates were then incubated 96 hours at 37° C. and then subjected to cell viability assays and extracellular HBV quantification, in order to evaluate both the cytotoxic potential and the anti-viral activity of compounds.
# Cytotoxicity was assessed by a commercial fluorescence assay that measures the metabolic activity of cells, directly related to cell viability (Cell Titer Blue, Promega). For each compound, cytotoxicity was evaluated at the same concentration employed to evaluate its anti-HBV activity. Anti-HBV activity was evaluated by quantification of extracellular HBV DNA with direct qPCR. In particular, supernatant was collected and centrifuged for cell debris clarification, viral DNA was extracted from virions by addition of lysis buffer (1 mM 1,4-dithiothreitol, 0.2% sodium dodecyl sulphate) and incubated at 95° C. for 10 min. Samples were then diluted 1:40 and real time PCR amplification was performed with SYBR green assay (Power SYBR™ Green PCR Master Mix-Thermo Fisher Scientific) and specific HBV primer (HBV-DF:5′-[…]-3′ (SEQ ID No. 1), HBV-DR:5′-[…]-3′ (SEQ ID No. 2)).
# All HBV inhibition or antiviral activity data are typically reported in percent (%) relative to a non-treated reference sample. Excel and Graphpad Prism programs are typically used for data elaboration and EC50 calculation.
row,SMILES,inhibition at 0.1 µM
1,"Cc1cc(N)c(S(N)(=O)=O)cc1C(=O)Nc1ccc(F)c(C(F)F)c1 [Example E68, 4-amino-N-(3-(difluoromethyl)-4-fluorophenyl)-2-methyl-5-sulfamoylbenzamide]",> 50%
2,"Nc1ncc(C(=O)Nc2cc(F)c(F)c(F)c2)cc1S(=O)(=O)N[C@H]1CC[C@H](O)CC1 [Example E58, trans-6-amino-5-(N-(4-hydroxycyclohexyl)sulfamoyl)-N-(3,4,5-trifluorophenyl)nicotinamide]",< 50%

# Same assay, conditions: Hepatitis B virus; 0.5 μM, HepAD38, 96 hours; read-out: HBV inhibition % (conc μM)
row,SMILES,inhibition at 0.5 µM
1,"Cc1cc(C(=O)Nc2cc(F)c(F)c(F)c2)cc(S(N)(=O)=O)c1N [Example E36, 4-amino-3-methyl-5-sulfamoyl-N-(3,4,5-trifluorophenyl)benzamide]",> 50%
2,"Nc1ccc(C(=O)Nc2ccc(F)c(Cl)c2)cc1S(=O)(=O)N[C@H]1CC[C@H](O)CC1 [Example E43, trans-4-amino-N-(3-chloro-4-fluorophenyl)-3-(N-(4-hydroxycyclohexyl)sulfamoyl)benzamide]",> 50%
3,"Nc1ccc(C(=O)Nc2cc(F)c(F)c(F)c2)cc1S(=O)(=O)Nc1ccncc1 [Example E31, 4-amino-3-(N-(pyridin-4-yl)sulfamoyl)-N-(3,4,5-trifluorophenyl)benzamide]",< 50%
4,"Cc1c(F)cc(NC(=O)c2ccc(N)c(S(N)(=O)=O)c2)cc1F [Example E13, 4-amino-N-(3,5-difluoro-4-methylphenyl)-3-sulfamoylbenzamide]",< 50%
5,"Nc1ccc(C(=O)Nc2cc(F)c(F)c(F)c2)cc1S(=O)(=O)N[C@H]1CC[C@@H](O)C1 [Example E47, 4-amino-3-(N-((1S,3R)-3-hydroxycyclopentyl)sulfamoyl)-N-(3,4,5-trifluorophenyl)benzamide]",> 50%
6,"CC(C)(C)OC(=O)N1CC[C@H](NS(=O)(=O)c2cc(C(=O)Nc3cc(F)c(F)c(F)c3)ccc2N)C1 [Example E34, tert-butyl (S)-3-((2-amino-5-((3,4,5-trifluorophenyl)carbamoyl)phenyl)sulfonamido)pyrrolidine-1-carboxylate]",> 50%
7,"Cc1cc(N)c(S(=O)(=O)N[C@H]2CC[C@H](O)CC2)cc1C(=O)Nc1cc(F)c(F)c(F)c1 [Example E23, trans-4-amino-5-(N-(4-hydroxycyclohexyl)sulfamoyl)-2-methyl-N-(3,4,5-trifluorophenyl)benzamide]",> 50%
8,"Nc1ccc(C(=O)Nc2cc(F)c(F)c(F)c2)cc1S(=O)(=O)NC1COC1 [Example E33, 4-amino-3-(N-(oxetan-3-yl)sulfamoyl)-N-(3,4,5-trifluorophenyl)benzamide]",> 50%
9,"Cc1cc(N)c(S(N)(=O)=O)cc1C(=O)Nc1ccc(F)c(C(F)(F)F)c1 [Example E67, 4-amino-N-(4-fluoro-3-(trifluoromethyl)phenyl)-2-methyl-5-sulfamoylbenzamide]",> 50%
10,"Nc1ccc(C(=O)Nc2cc(F)c(F)c(F)c2)cc1S(=O)(=O)N[C@H]1CCNC1 [Example E35, (S)-4-amino-3-(N-(pyrrolidin-3-yl)sulfamoyl)-N-(3,4,5-trifluorophenyl)benzamide]",< 50%
11,"Nc1ccc(C(=O)Nc2ccc(F)c(F)c2)cc1S(N)(=O)=O [Example E4, 4-amino-N-(3,4-difluorophenyl)-3-sulfamoylbenzamide]",> 50%
12,"Nc1ccc(C(=O)Nc2cc(F)c(F)c(F)c2)cc1S(=O)(=O)N1CCC(O)CC1 [Example E29, 4-amino-3-((4-hydroxypiperidin-1-yl)sulfonyl)-N-(3,4,5-trifluorophenyl)benzamide]",> 50%
13,"N#Cc1cc(NC(=O)c2ccc(N)c(S(N)(=O)=O)c2)ccc1F [Example E8, 4-amino-N-(3-cyano-4-fluorophenyl)-3-sulfamoylbenzamide]",> 50%
14,"Nc1ccc(C(=O)Nc2cc(F)c(F)c(F)c2)cc1S(=O)(=O)N1CCC(O)C1 (stereo not shown) [Example E53, 4-amino-3-((3-hydroxypyrrolidin-1-yl)sulfonyl)-N-(3,4,5-trifluorophenyl)benzamide]",> 50%
15,"Cc1cc(N)c(S(N)(=O)=O)cc1C(=O)Nc1ccc(F)c(C#N)c1 [Example E69, 4-amino-N-(3-cyano-4-fluorophenyl)-2-methyl-5-sulfamoylbenzamide]",> 50%
16,"Nc1ccc(C(=O)Nc2cc(F)c(F)c(F)c2)cc1S(=O)(=O)N[C@@H]1CC[C@@H](O)C1 (relative stereo) [Example E57, trans-4-amino-3-(N-(3-hydroxycyclopentyl)sulfamoyl)-N-(3,4,5-trifluorophenyl)benzamide]",> 50%
17,"Nc1ccc(C(=O)Nc2ccc(F)c(F)c2F)cc1S(N)(=O)=O [Example E14, 4-amino-3-sulfamoyl-N-(2,3,4-trifluorophenyl)benzamide]",< 50%
18,"Nc1ccc(C(=O)Nc2ccc(Cl)nc2)cc1S(N)(=O)=O [Example E11, 4-amino-N-(6-chloropyridin-3-yl)-3-sulfamoylbenzamide]",< 50%
19,"Nc1ccc(C(=O)Nc2cc(F)c(F)c(F)c2)cc1S(=O)(=O)N[C@H]1CC[C@@H](O)CC1 [Example E22, cis-4-amino-3-(N-(4-hydroxycyclohexyl)sulfamoyl)-N-(3,4,5-trifluorophenyl)benzamide]",> 50%
20,"Cc1cc(N)c(S(=O)(=O)N[C@@H](C)C(F)(F)F)cc1C(=O)Nc1cc(F)c(F)c(F)c1 [Example E64, (S)-4-amino-2-methyl-N-(3,4,5-trifluorophenyl)-5-(N-(1,1,1-trifluoropropan-2-yl)sulfamoyl)benzamide]",> 50%
21,"Nc1ccc(C(=O)Nc2ccc(F)c(C(F)F)c2)cc1S(=O)(=O)N[C@H]1CC[C@H](O)CC1 [Example E44, 4-amino-N-(3-(difluoromethyl)-4-fluorophenyl)-3-(N-((1r,4r)-4-hydroxycyclohexyl)sulfamoyl)benzamide]",> 50%
22,"Nc1ccc(C(=O)Nc2cc(F)c(F)c(F)c2)cc1S(=O)(=O)NC1CC1 [Example E20, 4-amino-3-(N-cyclopropylsulfamoyl)-N-(3,4,5-trifluorophenyl)benzamide]",> 50%
23,Cc1cc(NC(=O)c2ccc(N)c(S(=O)(=O)N[C@H]3CC[C@H](O)CC3)c2)ccc1F [Example E46],> 50%

# Same assay, conditions: Hepatitis B virus; 1 μM, HepAD38, 96 hours; read-out: HBV inhibition % (conc μM)
row,SMILES,inhibition at 1 µM
1,"CC(C)(C)OC(=O)N[C@H]1CCC[C@H]1NS(=O)(=O)c1cc(C(=O)Nc2cc(F)c(F)c(F)c2)ccc1N [Example E52, tert-butyl ((1S,2R)-2-((2-amino-5-((3,4,5-trifluorophenyl)carbamoyl)phenyl)sulfonamido)cyclopentyl)carbamate]",> 50%
2,"Nc1cc(Br)c(C(=O)Nc2cc(F)c(F)c(F)c2)cc1S(N)(=O)=O [Example E6, 4-amino-2-bromo-5-sulfamoyl-N-(3,4,5-trifluorophenyl)benzamide]",> 50%

# Same assay, conditions: Hepatitis B virus; HepAD38, 8-point dose-response; read-out: HBV inh EC50
row,SMILES,EC50
1,"Cc1cc(N)c(S(N)(=O)=O)cc1C(=O)Nc1ccc(F)c(Cl)c1 [Example E60, 4-amino-N-(3-chloro-4-fluorophenyl)-2-methyl-5-sulfamoylbenzamide]",< 1000 nM
2,"Nc1ccc(S(=O)(=O)N2CCC(O)CC2)cc1C(=O)Nc1cc(F)c(F)c(F)c1 [Example E62, 2-amino-5-((4-hydroxypiperidin-1-yl)sulfonyl)-N-(3,4,5-trifluorophenyl)benzamide]",< 1000 nM
3,"Nc1ccc(S(=O)(=O)N[C@H]2CC[C@H](O)CC2)cc1C(=O)Nc1cc(F)c(F)c(F)c1 [Example E61, trans-2-amino-5-(N-(4-hydroxycyclohexyl)sulfamoyl)-N-(3,4,5-trifluorophenyl)benzamide]",< 1000 nM

# Same assay, conditions: concentration not given, HepAD38
row,SMILES,HBV inhibition % (conc μM)
1,"Cc1cc(NC(=O)c2cc(S(N)(=O)=O)c(N)cc2C)ccc1F [Example E40, 4-amino-N-(4-fluoro-3-methylphenyl)-2-methyl-5-sulfamoylbenzamide]",A (HBV inhibition greater than 50% at the concentration indicated in the table)
